# Test results from paper PMC5028030, “Costimulatory Effects of an Immunodominant Parasite Antigen Paradoxically Prevent Induction of Optimal CD8 T Cell Protective Immunity” (PLoS Pathogens, 2016).
# Entries after “also recorded” stand apart in the source; their conditions may differ. Peptide text beside a SMILES is read from it.
# Columns and labels:
# naïve CD8^+ T cells = assay: CD8^+ T cell costimulation assay; type: cell-based, BALB/c mouse; settings: inhibitor added to TS/PMA activated CD8^+ T cell cultures
# Description: (§1) Fig 6 TS enzymatic activity is associated with costimulatory effects. In panel A, enzymatic activities of WT and TSKd1 mutant proteins were determined in lysates and supernatants of 293T cells transfected with WT TS and TSKd1 null DNA using fluorometric TS enzymatic activity assays. […] CD8^+ T cells from naïve 4–5 week old BALB/c mice were purified by positive magnetic bead selection and incubated with suboptimal doses of PMA (12.5ng/ml) ± WT or TSKd1 null rTS. After 3 days, proliferation was measured by ^3H-Thymidine incorporation. Shown are incorporated ^3H-Thymidine counts per minute (CPM) above suboptimal PMA treatment alone. Similar TS costimulation assays using naïve CD8^+ T cells were conducted with CD45 inhibitor PTP or Src-family kinase inhibitor PP2 added (C). In panel D, increasing concentrations of TSKd1 peptide were added to constant amounts of WT TS in TS enzyme assays. […]
# CD8^+ T cells purified by positive Miltenyi magnetic bead selection from naïve 4–5 week old BALB/c mice were added to 96-well flat bottom plates (2x10^5 cells/well) and stimulated with suboptimal doses of PMA (12.5 ng/ml) with or without recombinant WT vs TSKd1 null TS protein (25–100 μg/ml) similar to TS costimulatory assays conducted previously. […] Ultima Gold F scintillation fluid was added and filtermats counted using a Perkin Elmer TriLux MicroBeta 1450 instrument. […]
# WT TS = WT TS (Trypanosoma cruzi, UniProt P23253); assay: Inhibition of TS enzymatic activity (MuNANA hydrolysis); type: biochemical
# Chain of WT TS (P23253 whole entry): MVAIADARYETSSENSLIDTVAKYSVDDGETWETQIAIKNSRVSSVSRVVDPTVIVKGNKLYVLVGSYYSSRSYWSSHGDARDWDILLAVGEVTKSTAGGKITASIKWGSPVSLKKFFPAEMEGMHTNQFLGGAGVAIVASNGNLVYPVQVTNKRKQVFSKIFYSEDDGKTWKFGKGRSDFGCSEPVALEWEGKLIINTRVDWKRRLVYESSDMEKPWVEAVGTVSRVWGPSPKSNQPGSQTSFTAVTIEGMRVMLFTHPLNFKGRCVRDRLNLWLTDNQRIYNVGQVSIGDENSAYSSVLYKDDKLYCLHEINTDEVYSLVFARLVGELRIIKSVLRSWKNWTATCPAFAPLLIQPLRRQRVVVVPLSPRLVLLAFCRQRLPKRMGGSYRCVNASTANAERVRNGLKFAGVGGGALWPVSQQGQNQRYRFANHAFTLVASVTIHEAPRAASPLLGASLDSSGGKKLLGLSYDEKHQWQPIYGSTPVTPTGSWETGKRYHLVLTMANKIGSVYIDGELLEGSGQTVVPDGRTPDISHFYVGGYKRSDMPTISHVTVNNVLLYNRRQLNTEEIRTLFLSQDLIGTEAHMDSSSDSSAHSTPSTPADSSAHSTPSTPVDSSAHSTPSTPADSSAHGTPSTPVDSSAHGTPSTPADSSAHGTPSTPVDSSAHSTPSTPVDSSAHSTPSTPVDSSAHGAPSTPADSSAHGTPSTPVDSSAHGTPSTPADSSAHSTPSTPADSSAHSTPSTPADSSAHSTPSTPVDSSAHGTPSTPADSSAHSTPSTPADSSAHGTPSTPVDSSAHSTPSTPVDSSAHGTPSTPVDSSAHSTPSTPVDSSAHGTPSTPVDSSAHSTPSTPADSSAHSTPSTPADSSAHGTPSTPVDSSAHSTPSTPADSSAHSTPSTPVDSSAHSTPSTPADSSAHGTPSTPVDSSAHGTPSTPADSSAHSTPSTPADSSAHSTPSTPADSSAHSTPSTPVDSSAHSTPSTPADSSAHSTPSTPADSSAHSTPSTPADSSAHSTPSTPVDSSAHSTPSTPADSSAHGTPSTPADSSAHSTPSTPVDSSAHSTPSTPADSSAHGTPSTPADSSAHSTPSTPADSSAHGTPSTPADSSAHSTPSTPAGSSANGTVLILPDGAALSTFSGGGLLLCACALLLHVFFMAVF
# Description: as §1, with “alone.” for “alone. Similar TS costimulation assays using naïve CD8^+ T cells were conducted with CD45 inhibitor PTP or Src-family kinase inhibitor PP2 added (C). In panel D, increasing concentrations of TSKd1 peptide were added to constant amounts of WT TS in TS enzyme assays.”
# Trans-sialidase enzymatic activity was assayed as described previously. […] The acid elutions were incubated at 95°C for 45 minutes, the reactions neutralized with glycine/NaOH (pH 10) and released 4-MU measured by fluorescence emission at 450nm and compared to a standard curve. […] The reaction was continuously monitored in a SpectraMax i3 Multi-Mode Detection Platform (Molecular Devices) after pre-incubation of the enzyme with the peptide for 10 min at room temperature. The residual activity at each concentration of TSKd1 was obtained by dividing the slope calculated at each concentration of TSKd1 (Vi) by the initial velocity determined in the absence of peptide (V0). […]
# CD4^+ T cells = tested on: CD4^+ T cells; parameters: method as in manuscript in preparation; settings: after TS vaccination; I-A^d-restricted; ref manuscript in preparation; cited from earlier work
compound,measurement,setting,value
"CC(C)(C)C(=O)Nc1ccc2c(c1)C(=O)C(=O)c1ccccc1-2 [PTP, N-[(9-10-dioxo-9,10-dihydro-phenanthren-2-yl)-2,2-dimethyl-propionamide]]",inhibition of TS costimulatory activity,naïve CD8^+ T cells,blocked; also recorded: prevent co-stimulation of naïve CD8^+ T cells
"CC[C@H](C)[C@H](N)C(=O)N[C@@H](Cc1ccc(O)cc1)C(=O)N[C@@H](CC(N)=O)C(=O)N[C@H](C(=O)NCC(=O)N[C@@H](CCC(N)=O)C(=O)N[C@H](C(=O)N[C@@H](CO)C(=O)N[C@H](C(=O)O)[C@@H](C)CC)C(C)C)C(C)C [TSKd1, IYNVGQVSI] (H-IYNVGQVSI-OH)",IC50,WT TS,20 ± 3 µM
KVTERVVHSFRLPALVNV [p7],CD4^+ T cell response to peptide,CD4^+ T cells,most potent CD4^+ T cell responses of any peptide tested
